Where two headings read alike, the source gives them in different places.
What was measured:
Format in all cases: cell-based
RSV strain A2 = experiment: RSV HEp-2 EC50 (infectious cytopathic cell protection assay); details: HEp-2 cells, RSV A2, 4 days, read-out: RSV HEp-2 EC50
Procedure, shortened: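 HEp-2 cells mixed with titered RSV A2 at 50,000 cells/ml were added to plates holding 3-fold serial compound dilutions in DMSO, then incubated 4 days at 37° C. Cytoprotection was read as cell viability by CellTiter-Glo luminescence and converted to percent inhibition against 0% and 100% inhibition controls.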

RSV A2 = experiment: RSV NHBE EC50 (RSV A2 antiviral assay in normal human bronchial epithelial cells); details: NHBE cells, RSV A2, 4 days, read-out: RSV NHBE EC50
HRV16 = HRV16 HELA EC50 (cytopathic effect in H1-HeLa cells)
Protocol: H1-HeLa cells, cultured in complete DMEM medium containing 10% heat-inactivated FBS and 1% Penicillin/Streptomycin, were seeded in 96 well plates at 3000 cells/well one day prior to compound dosing and infection. The antiviral activity of each compound was measured in triplicate. Compounds were added directly to the cell cultures in serial 3-fold dilutions using the HP300 digital dispenser (Hewlett Packard, Palo Alto, CA) immediately prior to infection. The plates were transferred to BSL-2 containment and the appropriate dilution of virus stock, previously determined by titration and prepared in cell culture media, was added to test plates containing cells and serially diluted compounds. Each plate included 6 wells of infected untreated cells and 6 wells of uninfected cells that served as 0% and 100% virus inhibition control, respectively. Following the infection, test plates were incubated for 96 h in a tissue culture incubator set to 33° C./5% CO2. Following incubation, the H1-HeLa cells were removed from incubation and allowed to equilibrate to 25° C. Cell viability was determined by removing 100 μL of culture medium and adding 100 μL of Cell-Titer Glo viability reagent. The mixtures were incubated on a shaker for 10 minutes at 25° C., and the luminescence signal was quantified on an Envision luminescence plate reader.

DENV2 replicon = experiment: DENV-2 Huh-7 Rep EC50 (replicon luminescence); details: read-out: DENV-2 Huh-7 Rep EC50
Protocol: In 384 well plates (Greiner, Cat #781091), compounds were acoustically transferred at 200 nl per well in a 8 compound (4 replicates) or 40 compound dose response format (3 replicates). For all plates tested, Balapiravir, GS-5734 and NITD008 were included as positive inhibition controls alongside 0% inhibition, DMSO-only negative control wells. Following compound addition, Huh-7 cells containing the DENV2 replicon construct were harvested following standard cell culture procedures and were adjusted to a concentration of 1.25E5 cells/mL in cell culture media composed of cDMEM without genticin. 40 μL of the cell stock was then added to each well for a final cell density of 5,000 cells/well. Cell and compound mixtures were incubated at 37° C./5% CO2 for 48 hours. Prior to harvesting cells, EnduRen Live Cell Substrate (Promega, Cat #E6481) was prepared by suspending 3.4 mg into 100 uL of DMSO to generate a 60 mM stock solution. The stock solution was then diluted 1:200 in pre-warmed cDMEM and 10 uL of this diluted solution was added to each well of the 384 well plates. Plates were then centrifuged at 500 rpm briefly and were placed on a plate shaker for 2 min. Following mixing, plates were incubated at […] for 1.5 hours prior to measuring luminescence on an Envision luminometer.

[1] = human respiratory syncytial virus, HEp-2, 96 h
[2] = human respiratory syncytial virus, NHBE, 96 h
[3] = 96 h, H1-HeLa cells, 33° C., read-out: HRV16 HELA EC50
[4] = Dengue virus, DENV2, Huh-7, 48 h, Huh-7 replicon cells, 48 hours
[5] = human respiratory syncytial virus, 96 h
[6] = H1-HeLa cells, 96 h, 33° C.; read-out: HRV16 HELA EC50

Row | SMILES | EC50 (RSV strain A2; [1]) [nM] | EC50 (RSV A2; [2]) [nM] | EC50 (HRV16; [3]) [nM] | EC50 (DENV2 replicon; [4]) [nM] | EC50 (RSV strain A2; [5]) [nM] | EC50 (RSV A2; [5]) [nM] | EC50 (HRV16; [6]) [nM] | EC50 (DENV2 replicon; Dengue virus, DENV2, Huh-7, 48 h) [nM] | EC50 (RSV strain A2) [nM] | EC50 (RSV A2) [nM] | EC50 (DENV2 replicon; Huh-7 replicon cells, 48 hours) [nM]
1 | CCC(CC)OC(=O)[C@H](CC)NP(=O)(OC[C@@]1(C#N)O[C@@H](c2ccc3c(N)ncnn23)[C@H](O)[C@@H]1O)Oc1ccccc1 (mixture of isomers) [Example 115, (2S)-pentan-3-yl 2-(((((2R,3S,4R,5S)-5-(4-aminopyrrolo[2,1-f][1,2,4]triazin-7-yl)-2-cyano-3,4-dihydroxytetrahydrofuran-2-yl)methoxy)(phenoxy)phosphoryl)amino)butanoate] | 8660 | 1550 | 10300 | > 50000 | – | – | – | – | – | – | –
2 | CC(C)C[C@H](NP(=O)(OC[C@@]1(C#N)O[C@@H](c2ccc3c(N)ncnn23)[C@H](O)[C@@H]1O)Oc1ccccc1)C(=O)OCC1CC1 (mixture of isomers) [Example 130, (2S)-cyclopropylmethyl 2-(((((2R,3S,4R,5S)-5-(4-aminopyrrolo[2,1-f][1,2,4]triazin-7-yl)-2-cyano-3,4-dihydroxytetrahydrofuran-2-yl)methoxy)(phenoxy)phosphoryl)amino)-4-methylpentanoate] | 3590 | 438 | 7300 | > 100000 | – | – | – | – | – | – | –
3 | C[C@H](NP(=O)(OC[C@@]1(C#N)O[C@@H](c2ccc3c(N)ncnn23)[C@H](O)[C@@H]1O)Oc1ccccc1)C(=O)O[C@@H]1CCNC1 (mixture of isomers) [Example 137, (2S)—(R)-pyrrolidin-3-yl 2-(((((2R,3S,4R,5S)-5-(4-aminopyrrolo[2,1-f][1,2,4]triazin-7-yl)-2-cyano-3,4-dihydroxytetrahydrofuran-2-yl)methoxy)(phenoxy)phosphoryl)amino)propanoate] | 3690 | > 5000 | 27000 | > 50000 | – | – | – | – | – | – | –
4 | C[C@H](NP(=O)(OC[C@@]1(C#N)O[C@@H](c2ccc3c(N)ncnn23)[C@H](O)[C@@H]1O)Oc1ccccc1)C(=O)O[C@H]1CC[C@H](C)CC1 (mixture of isomers) [Example 142, (2S)-(1r,4S)-4-methylcyclohexyl 2-(((((2R,3S,4R,5S)-5-(4-aminopyrrolo[2,1-f][1,2,4]triazin-7-yl)-2-cyano-3,4-dihydroxytetrahydrofuran-2-yl)methoxy)(phenoxy)phosphoryl)amino)propanoate] | 251 | 61 | 164 | 12200 | – | – | – | – | – | – | –
5 | C[C@H](NP(=O)(OC[C@@]1(C#N)O[C@@H](c2ccc3c(N)ncnn23)[C@H](O)[C@@H]1O)Oc1ccccc1)C(=O)OC1CCNCC1 (mixture of isomers) [Example 145, (2S)-piperidin-4-yl 2-(((((2R,3S,4R,5S)-5-(4-aminopyrrolo[2,1-f][1,2,4]triazin-7-yl)-2-cyano-3,4-dihydroxytetrahydrofuran-2-yl)methoxy)(phenoxy)phosphoryl)amino)propanoate] | 2900 | > 5000 | 46200 | > 100000 | – | – | – | – | – | – | –
6 | CC(NP(=O)(OC[C@@]1(C#N)O[C@@H](c2ccc3c(N)ncnn23)[C@H](O)[C@@H]1O)Oc1ccccc1)C(=O)O[C@H]1CCNC1=O (mixture of isomers) [Example 153, (S)-2-oxopyrrolidin-3-yl ((((2R,3S,4R,5S)-5-(4-aminopyrrolo[2,1-f][1,2,4]triazin-7-yl)-2-cyano-3,4-dihydroxytetrahydrofuran-2-yl)methoxy)(phenoxy)phosphoryl)alaninate] | 7140 | > 5000 | 12500 | > 100000 | – | – | – | – | – | – | –
7 | C[C@H](NP(=O)(OC[C@@]1(C#N)O[C@@H](c2ccc3c(N)ncnn23)[C@H](O)[C@@H]1O)Oc1ccccc1)C(=O)OC1CCCC(C)(C)C1 (mixture of isomers) [Example 154, 3,3-dimethylcyclohexyl ((((2R,3S,4R,5S)-5-(4-aminopyrrolo[2,1-f][1,2,4]triazin-7-yl)-2-cyano-3,4-dihydroxytetrahydrofuran-2-yl)methoxy)(phenoxy)phosphoryl)-L-alaninate] | 2700 | 311 | 1950 | 50700 | – | – | – | – | – | – | –
8 | C[C@H](NP(=O)(OC[C@@]1(C#N)O[C@@H](c2ccc3c(N)ncnn23)[C@H](O)[C@@H]1O)Oc1ccccc1)C(=O)O[C@H]1CCCC[C@@H]1C (mixture of isomers) [Example 155, trans-2-methylcyclohexyl ((((2R,3S,4R,5S)-5-(4-aminopyrrolo[2,1-f][1,2,4]triazin-7-yl)-2-cyano-3,4-dihydroxytetrahydrofuran-2-yl)methoxy)(phenoxy)phosphoryl)-L-alaninate] | 4320 | 1580 | 4200 | 84400 | – | – | – | – | – | – | –
9 | C[C@H](NP(=O)(OC[C@@]1(C#N)O[C@@H](c2ccc3c(N)ncnn23)[C@H](O)[C@@H]1O)Oc1ccccc1)C(=O)OC1CCC(F)(F)CC1 (mixture of isomers) [Example 174, 4,4-difluorocyclohexyl ((((2R,3S,4R,5S)-5-(4-aminopyrrolo[2,1-f][1,2,4]triazin-7-yl)-2-cyano-3,4-dihydroxytetrahydrofuran-2-yl)methoxy)(phenoxy)phosphoryl)-L-alaninate] | 257 | 1390 | 748 | 33800 | – | – | – | – | – | – | –
10 | CCC(CC)COC(=O)[C@H](C)NP(=O)(N[C@@H](C)C(=O)OC)OC[C@@]1(C#N)O[C@@H](c2ccc3c(N)ncnn23)[C@H](O)[C@@H]1O (mixture of isomers) [Example 221, 2-Ethylbutyl ((((2R,3S,4R,5S)-5-(4-aminopyrrolo[2,1-f][1,2,4]triazin-7-yl)-2-cyano-3,4-dihydroxytetrahydrofuran-2-yl)methoxy)(((S)-1-methoxy-1-oxopropan-2-yl)amino)phosphoryl)-L-alaninate] | – | – | – | – | 1180 | > 1050 | 8490 | > 100000 | – | – | –
11 | CC(C)OC(=O)[C@H](C)N[P@](=O)(OC[C@@]1(C#N)O[C@@H](c2ccc3c(N)ncnn23)[C@H](O)[C@@H]1O)Oc1ccccc1 (single isomer, unassigned) [Example 1] | 342 | 879 | 966 | > 50000 | – | – | – | – | – | – | –
12 | CC(C)(C)C(=O)OCCNP(=O)(OCC1(C#N)OC(c2ccc3c(N)ncnn23)C(O)C1O)Oc1ccccc1 (single isomer, unassigned) [Example 12] | – | – | – | – | – | – | 1930 | – | 244 | 29 | > 50000
13 | C[C@H](N[P@@](=O)(OC[C@@]1(C#N)O[C@@H](c2ccc3c(N)ncnn23)[C@H](O)[C@@H]1O)Oc1ccccc1)C(=O)O[C@H]1CC[C@H](C(F)(F)F)CC1 (single isomer, unassigned) [Example 17] | 308 | 88 | 489 | 53700 | – | – | – | – | – | – | –
14 | CCCOC(=O)C(C)NP(=O)(OCC1(C#N)OC(c2ccc3c(N)ncnn23)C(O)C1O)Oc1ccccc1 (single isomer, unassigned) [Example 46] | – | – | – | – | – | – | 487 | – | 82 | 393 | > 20800
15 | CCCOC(=O)C(C)NP(=O)(OCC1(C#N)OC(c2ccc3c(N)ncnn23)C(O)C1O)Oc1ccccc1 (single isomer, unassigned) [Example 47] | – | – | – | – | – | – | 560 | – | 51 | 162 | 9190
16 | C[C@H](NP(=O)(OC[C@@]1(C#N)O[C@@H](c2ccc3c(N)ncnn23)[C@H](O)[C@@H]1O)Oc1ccccc1)C(=O)OC1CCC1 (single isomer, unassigned) [Example 50] | 44 | 498 | 464 | 6920 | – | – | – | – | – | – | –
